Assay results reported in paper PMC7821181, “MS Binding Assays for Glycine Transporter 2 (GlyT2) Employing Org25543 as Reporter Ligand” (Chemmedchem, 2020).

Columns and labels:
GlyT2 = system: GlyT2; set-up: method as in PMID 15964938; conditions: ref 27; read-out: IC50 in FLIPR membrane potential assay; cited from earlier work
hGlyT2 = molecular target: T1, hGlyT2 (Homo sapiens, UniProt Q9Y345); experiment: GlyT2 MS Binding Assays: saturation experiments with Org25543; conditions: mean±SEM, n=3
T1 construct: host or cells: HEK293 cells stably expressing hGlyT2; crude membrane fractions
T1 sequence (Q9Y345 1-797): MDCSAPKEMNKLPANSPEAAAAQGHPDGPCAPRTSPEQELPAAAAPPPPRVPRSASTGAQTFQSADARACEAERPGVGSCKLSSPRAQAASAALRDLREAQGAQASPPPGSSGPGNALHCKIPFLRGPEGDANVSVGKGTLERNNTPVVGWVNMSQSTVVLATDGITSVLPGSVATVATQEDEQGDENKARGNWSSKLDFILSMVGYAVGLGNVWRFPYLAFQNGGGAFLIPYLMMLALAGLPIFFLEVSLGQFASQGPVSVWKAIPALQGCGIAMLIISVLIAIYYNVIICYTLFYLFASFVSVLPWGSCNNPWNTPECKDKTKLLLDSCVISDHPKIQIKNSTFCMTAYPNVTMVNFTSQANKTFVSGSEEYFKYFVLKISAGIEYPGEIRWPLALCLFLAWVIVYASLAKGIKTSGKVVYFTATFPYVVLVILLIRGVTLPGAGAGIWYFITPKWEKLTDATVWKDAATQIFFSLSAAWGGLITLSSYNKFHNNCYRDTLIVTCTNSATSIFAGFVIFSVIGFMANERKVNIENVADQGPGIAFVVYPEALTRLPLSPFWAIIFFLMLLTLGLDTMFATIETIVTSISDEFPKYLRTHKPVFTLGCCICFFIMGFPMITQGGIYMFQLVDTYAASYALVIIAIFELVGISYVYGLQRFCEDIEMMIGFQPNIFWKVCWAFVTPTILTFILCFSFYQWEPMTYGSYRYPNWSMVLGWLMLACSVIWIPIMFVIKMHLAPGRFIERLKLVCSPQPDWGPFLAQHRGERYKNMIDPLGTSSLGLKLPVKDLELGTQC
Description: For the further characterization of the binding of Org25543 to GlyT2 saturation experiments were performed. To determine total binding of Org25543 GlyT2 membrane fractions were incubated with the reporter ligand in eight different concentrations (0.4–150 nM) and the samples analyzed after the general workup by LC‐ESI‐MS/MS as described above. Nonspecific binding was obtained from experiments that were completely analogous to the former except that protein subjected to a prior heat‐shock was used. Quantification of Org25543 in total binding samples could be realized down to the lowest nominal concentration level (0.4 nM). For nonspecific binding samples the quantification was possible down to 2 nM nominal marker concentration. For nominal marker concentrations lower than 2 nM the concentrations of Org25543 lay below the LLOQ. As it is generally acknowledged that nonspecific binding is related to nominal marker concentration in a linear fashion, ^[46] data points below this concentration were calculated by extrapolation after linear regression analysis of the data points for nonspecific binding at nominal marker concentrations from 2 to 150 nM.
For preparation of GlyT2 membrane preparations HEK293 cells, stably expressing the hGlyT2 with a confluence ≥90 %, were used (kindly provided by AbbVie (Wiesbaden, Germany)). […]

## COc1cc(C(=O)NCC2(N(C)C)CCCC2)cc(OC)c1OCc1ccccc1 [Org25543, N‐[[1‐(dimethylamino)cyclopentyl]methyl]‐3,5‐dimethoxy‐4‐(phenylmethoxy)benzamide]
GlyT2
  IC50: 0.031 ± 0.006 µM
hGlyT2; HEK293 hGlyT2 membrane preparation
  maximum density of binding sites (B max): 26.15±1.03 pmol (mg protein)^−1
hGlyT2; Org25543 0.4–150 nM, read-out: K d (saturation experiments)
  Kd: 0.00745 µM
